Measurements taken from PMC4839570, “Novel Anthra[1,2-c][1,2,5]Thiadiazole-6,11-Diones as Promising Anticancer Lead Compounds: Biological Evaluation, Characterization & Molecular Targets Determination” (PLoS ONE, 2016).

Experiments:
[1] = system: Mycobacterium tuberculosis H37Rv; experiment: Antimycobacterial susceptibility, BACTEC MGIT 960 SIRE; format: cell-based
MGH-U1R cell line = system: MGH-U1R cell line; set-up: method as in PMID 25431950; conditions: cited from earlier work
[2] = system: normal cardiac myoblast H9c2 cells
Protocol: Briefly, 96 well microtiter plates were inoculated with the specified human cancer cell lines in RPMI 1640 medium containing 5% fetal bovine serum and 2 mM L-glutamine at the specified plating densities. The microtiter plates were incubated at 37°C, 5% CO2, and 100% relative humidity for 24 h. The test compounds were solubilized in DMSO at 400-fold the desired final maximum test concentration, diluted with complete medium containing gentamicin and added to the wells of the microtiter plates to achieve the final desired compound concentration, then incubated for an additional 48 h at the same incubation conditions. The media were removed, the cells were fixed then stained with sulforhodamine B and the unbound dye was removed by washing with acetic acid. The bound dye was resolubilized with trizma base and the absorbance at 515 nm was measured. Cells were stained with the WST-1 cell proliferation reagent instead of sulforhodamine B in some experiments and absorbance were measured at 440 nm. The three dose response parameters GI50, TGI and LC50 were calculated for each experimental compound as follows [48]: For values where Ti ≥ Tz the formula is [ (Ti-Tz) / (C-Tz)] x 100 For values where Ti < Tz the formula is [ (Ti-Tz) / Tz] x 100 Where Ti is the absorbance of the solubilized Sulforhodamine B (SRB) (representing the number of cells) of the five different concentrations of the compound used in the test, Tz is the absorbance of the SRB at time zero, and C is the absorbance of the SRB of the control growth.

For `CC[C@@H](CO)NCCN[C@@H](CC)CO` [Ethambutol, reference compound], the “Effect on M. tuberculosis H37Rv” value ([1]; 5 μg/mL) was “Inhibition”.

In the case of `[H]/N=C(/N)N[C@H]1[C@H](O)[C@@H](O)[C@H](O[C@@H]2O[C@@H](C)[C@](O)(C=O)[C@H]2O[C@@H]2O[C@@H](CO)[C@H](O)[C@@H](O)[C@@H]2NC)[C@@H](N/C(N)=N\[H])[C@@H]1O` [Streptomycin, reference compound], the “Effect on M. tuberculosis H37Rv” value ([1]; 1 μg/mL) is reported as “Inhibition”.

With `NNC(=O)c1ccncc1` [Isoniazid, reference compound] the “Effect on M. tuberculosis H37Rv” value ([1]; 0.1 μg/mL) was “Inhibition”.

In the case of `COc1cccc2c1C(=O)c1c(O)c3c(c(O)c1C2=O)C[C@@](O)(C(=O)CO)C[C@@H]3O[C@H]1C[C@H](N)[C@H](O)[C@H](C)O1` [Doxorubicin, doxorubicin, reference compound], the “resistance of MGH-U1R cell line” value (MGH-U1R cell line) is listed as 40 fold and the “cytotoxicity towards normal cardiac myoblast H9c2 cells” value [2] is listed as “potent dose dependent cytotoxic effect”.

With `CO[C@H]1/C=C/O[C@@]2(C)Oc3c(C)c(O)c4c(O)c(c(/C=N/N5CCN(C)CC5)c(O)c4c3C2=O)NC(=O)/C(C)=C\C=C\[C@H](C)[C@H](O)[C@@H](C)[C@@H](O)[C@@H](C)[C@H](OC(C)=O)[C@@H]1C` [Rifampin, reference compound] the “Effect on M. tuberculosis H37Rv” value ([1]; 1 μg/mL) was “Inhibition”.
